Source: patent publication US8030344B2, “Inhibitors of histone deacetylase” (MethylGene Inc., priority 2007, dated 2011)

Assays:
[1] = molecular target: HDAC-1 (Homo sapiens, UniProt Q13547); assay: Inhibition of histone deacetylase enzymatic (HDAC-1) activity, Boc-Lys(Ac)-AMC fluorescence assay; type: biochemical
Experimental: Inhibition of Histone Deacetylase Enzymatic (HDAC-1) Activity
(§1) The following protocol is used to assay the compounds of the invention. In the assay, the buffer used is 25 mM HEPES, pH 8.0, 137 mM NaCl, 2.7 mM KCl, 1 mM MgCl2 and the substrate is Boc-Lys(Ac)-AMC in a 50 mM stock solution in DMSO. The enzyme stock solution is 4.08 μg/mL in buffer.
(§2) The compounds are pre-incubated (2 μl in DMSO diluted to 13 μl in buffer for transfer to assay plate) with enzyme (20 μl of 4.08 μg/ml) for 10 minutes at room temperature (35 μl pre-incubation volume). The mixture is pre-incubated for 5 minutes at room temperature. The reaction is started by bringing the temperature to 37° C. and adding 15 μl substrate. Total reaction volume is 50 μl. The reaction is stopped after 20 minutes by addition of 50 μl developer, prepared as directed by Biomol (Fluor-de-Lys developer, Cat. # KI-105). A plate is incubated in the dark for 10 minutes at room temperature before reading (λEx=360 nm, λEm=470 nm, Cutoff filter at 435 nm). Similar assays are performed to measure HDAC-2 inhibitory activity

[2] = molecular target: HDAC-2 (Homo sapiens, UniProt Q92769); assay: Similar assay measuring HDAC-2 inhibitory activity; type: biochemical
Sequence of HDAC-2 (Q92769 whole entry): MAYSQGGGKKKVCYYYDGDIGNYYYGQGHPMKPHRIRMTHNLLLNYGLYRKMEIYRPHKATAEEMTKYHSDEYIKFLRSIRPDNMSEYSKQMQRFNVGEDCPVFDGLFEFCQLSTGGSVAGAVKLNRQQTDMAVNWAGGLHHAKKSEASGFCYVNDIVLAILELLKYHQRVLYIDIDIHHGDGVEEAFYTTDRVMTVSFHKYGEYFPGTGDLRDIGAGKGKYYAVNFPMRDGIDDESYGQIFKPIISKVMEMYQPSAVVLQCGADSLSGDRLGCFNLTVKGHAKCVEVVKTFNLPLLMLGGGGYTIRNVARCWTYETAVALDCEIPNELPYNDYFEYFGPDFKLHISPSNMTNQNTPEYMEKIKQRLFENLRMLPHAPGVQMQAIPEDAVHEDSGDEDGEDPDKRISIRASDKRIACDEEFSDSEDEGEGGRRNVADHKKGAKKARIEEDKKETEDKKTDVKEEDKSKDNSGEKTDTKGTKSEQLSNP
Experimental: as §1, §2

[3] = test system: HCT116 cells; assay: MTT assay on HCT116 cells; type: cell-based; details: 72 hours incubation, concentration reducing cell numbers to 50% of solvent treated cells
Experimental: (§3) HCT116 cells (2000/well) are plated into 96-well tissue culture plates one day before compound treatment. Representative compounds at various concentrations were added to the cells. The cells are incubated for 72 hours at 37° C. in 5% CO2 incubator. MTT (3-[4,5-dimethylthiazol-2-yl]-2,5 diphenyl tetrazolium bromide, Sigma) is added at a final concentration of 0.5 mg/ml and incubated with the cells for 4 hours before one volume of solubilization buffer (50% N,N-dimethylformamide, 20% SDS, pH 4.7) is added onto the cultured cells. After overnight incubation, solubilized dye is quantified by calorimetric reading at 570 nM using a reference at 630 nM. OD values are converted to cell numbers according to a standard growth curve of the relevant cell line. The concentration which reduces cell numbers to 50% of that of solvent treated cells is determined as MTT IC50. A similar assay is performed on HMEC cells.

[4] = test system: HMEC cells; assay: MTT assay on HMEC cells; type: cell-based; details: similar MTT assay on HMEC cells
Experimental: as §3

Sequence of HDAC-1 (Q13547 whole entry): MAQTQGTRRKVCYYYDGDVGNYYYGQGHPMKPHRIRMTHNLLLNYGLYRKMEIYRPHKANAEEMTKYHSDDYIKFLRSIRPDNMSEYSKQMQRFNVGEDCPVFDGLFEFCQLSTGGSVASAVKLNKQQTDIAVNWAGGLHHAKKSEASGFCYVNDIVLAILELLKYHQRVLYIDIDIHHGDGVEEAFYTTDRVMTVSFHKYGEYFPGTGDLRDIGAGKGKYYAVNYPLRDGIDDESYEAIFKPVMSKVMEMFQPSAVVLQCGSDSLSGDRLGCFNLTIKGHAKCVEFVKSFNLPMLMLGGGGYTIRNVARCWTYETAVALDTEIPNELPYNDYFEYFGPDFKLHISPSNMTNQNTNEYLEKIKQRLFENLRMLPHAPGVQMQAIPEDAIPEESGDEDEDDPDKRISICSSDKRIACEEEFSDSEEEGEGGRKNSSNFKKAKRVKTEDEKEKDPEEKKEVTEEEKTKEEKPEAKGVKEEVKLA

| Compound | IC50 [1] [µM] | IC50 [2] [µM] | IC50 ([3]; Homo sapiens, HCT-116) [µM] | IC50 ([4]; Homo sapiens) [µM] | IC50 [3] [µM] | IC50 [4] [µM] |
| --- | --- | --- | --- | --- | --- | --- |
| Nc1ccccc1NC(=O)c1ccc(N2CC[C@H](O)C2)cc1 [Compound 160, (S)-N-(2-Aminophenyl)-4-(3-hydroxypyrrolidin-1-yl)benzamide] | ≤ 1 | ≤ 1 | – | – | – | – |
| CC(C)(C)OC(=O)N[C@H]1CCN(c2ccc(C(=O)Nc3ccccc3N)cc2)C1 [Compound 122, (S)-tert-Butyl 1-(4-(2-aminophenylcarbamoyl)phenyl)pyrrolidin-3-yl carbamate] | ≤ 0.5 | ≤ 0.5 | ≤ 1 | ≤ 50 | – | – |
| Nc1ccccc1NC(=O)c1ccc(N2CC[C@H](NC(=O)OC3CCOCC3)C2)cc1 [Compound 200, (S)-tetrahydro-2H-pyran-4-yl 1-(4-(2-aminophenylcarbamoyl)phenyl)-pyrrolidin-3-ylcarbamate] | ≤ 0.5 | ≤ 0.5 | ≤ 0.5 | > 50 | – | – |
| Nc1ccccc1NC(=O)c1ccc(N2CC[C@H](NC(=O)OCC3CC3)C2)cc1 [Compound 199, (S)-cyclopropylmethyl 1-(4-(2-aminophenylcarbamoyl)phenyl)-pyrrolidin-3-ylcarbamate] | ≤ 0.1 | ≤ 0.5 | ≤ 0.5 | ≤ 50 | – | – |
| COC(=O)N[C@H]1CCN(c2ccc(C(=O)Nc3ccccc3N)cc2)C1 [Compound 120, (S)-Methyl 1-(4-(2-aminophenylcarbamoyl)phenyl)pyrrolidin-3-yl carbamate] | ≤ 0.5 | ≤ 0.5 | – | > 50 | – | – |
| CN1CC[C@@H](OC(=O)N[C@H]2CCN(c3ccc(C(=O)Nc4ccccc4N)cc3)C2)C1 [Compound 146, (R)-1-Methylpyrrolidin-3-yl (S)-1-(4-(2-aminophenylcarbamoyl)phenyl)pyrrolidin-3-yl carbamate] | ≤ 0.5 | ≤ 0.5 | ≤ 5 | – | – | – |
| COC(=S)N[C@H]1CCN(c2ccc(C(=O)Nc3ccccc3N)cc2)C1 [Compound 135, (S)-O-Methyl 1-(4-(2-aminophenylcarbamoyl)phenyl)pyrrolidin-3-ylcarbamothioate] | ≤ 0.1 | ≤ 0.5 | ≤ 0.5 | ≤ 10 | – | – |
| COCCOC(=O)N[C@H]1CCN(c2ncc(C(=O)Nc3ccccc3N)cn2)C1 [Compound 151, (S)-2-Methoxyethyl 1-(5-(2-aminophenylcarbamoyl)pyrimidin-2-yl)pyrrolidin-3-ylcarbamate] | ≤ 1 | – | ≤ 50 | – | – | – |
| CC(C)OC(=O)N[C@H]1CCN(c2ccc(C(=O)Nc3ccccc3N)cc2)C1 [Compound 198, (S)-isopropyl 1-(4-(2-aminophenylcarbamoyl)phenyl)-pyrrolidin-3-ylcarbamate] | ≤ 0.5 | ≤ 0.5 | ≤ 1 | ≤ 50 | – | – |
| COCCOC(=O)N[C@H]1CCN(c2ccc(C(=O)Nc3ccccc3N)cn2)C1 [Compound 154, (S)-2-Methoxyethyl 1-(5-(2-aminophenylcarbamoyl)pyridin-2-yl)pyrrolidin-3-ylcarbamate] | ≤ 0.5 | ≤ 5 | ≤ 5 | – | – | – |
| CC(=O)O[C@H]1CCN(c2ccc(C(=O)Nc3ccccc3N)cc2)C1 [Compound 159, (S)-1-(4-(2-Aminophenylcarbamoyl)phenyl)pyrrolidin-3-yl acetate] | ≤ 0.5 | ≤ 1 | – | – | – | – |
| CN(C)[C@H]1CCN(c2ccc(C(=O)Nc3ccccc3N)cc2)C1 [Compound 165, (S)-N-(2-Aminophenyl)-4-(3-(dimethylamino)pyrrolidin-1-yl)benzamide] | ≤ 1 | ≤ 5 | – | – | – | – |
| CCOC(=O)N[C@H]1CCN(c2ccc(C(=O)Nc3ccccc3N)cn2)C1 [Compound 156, (S)-Ethyl 1-(5-(2-aminophenylcarbamoyl)pyridin-2-yl)pyrrolidin-3-ylcarbamate] | ≤ 0.5 | ≤ 1 | ≤ 1 | ≤ 50 | – | – |
| COC(=O)N[C@H]1CCN(c2ccc(C(=O)Nc3ccccc3N)cn2)C1 [Compound 155, (S)-Methyl 1-(5-(2-aminophenylcarbamoyl)pyridin-2-yl)pyrrolidin-3-ylcarbamate] | ≤ 0.5 | ≤ 5 | ≤ 5 | ≤ 50 | – | – |
| COC(=O)N(Cc1cccnc1)[C@H]1CCN(c2ccc(C(=O)Nc3ccccc3N)cc2)C1 [Compound 196, (S)-methyl 1-(4-(2-aminophenylcarbamoyl)phenyl)-pyrrolidin-3-yl(pyridin-3-ylmethyl)carbamate] | ≤ 0.5 | ≤ 0.5 | ≤ 5 | – | – | – |
| Nc1ccccc1NC(=O)c1ccc(N2CC[C@H](NC(=O)NCc3cccnc3)C2)cc1 [Compound 128, (S)-N-(2-Aminophenyl)-4-(3-(3-(pyridin-3-ylmethyl)ureido)pyrrolidin-1-yl)benzamide] | ≤ 5 | ≤ 1 | ≤ 5 | ≤ 50 | – | – |
| Nc1ccccc1NC(=O)c1ccc(N2CC[C@H](NC(=O)OCc3cccnc3)C2)cc1 [Compound 127, ((S)-Pyridin-3-ylmethyl-1-(4-(2-aminophenylcarbamoyl)phenyl)pyrrolidin-3-yl carbamate] | ≤ 1 | ≤ 5 | ≤ 5 | > 50 | – | – |
| Nc1ccccc1NC(=O)c1ccc(N2CC[C@H](NC(=O)OCc3ccccc3)C2)cc1 [Compound 124, (S)-Benzyl 1-(4-(2-aminophenylcarbamoyl)phenyl)pyrrolidin-3-yl carbamate] | ≤ 0.5 | ≤ 0.1 | – | ≤ 5 | – | – |
| (S)-Methyl 1-(5-(2-aminophenyl carbamoyl)pyrimidin-2-yl) pyrrolidin-3-yl carbamate [Compound 152] | ≤ 1 | – | – | – | ≤ 10 | – |
| Nc1ccccc1NC(=O)c1ccc(N2CC[C@H](NC(=S)NCc3cccnc3)C2)cc1 [Compound 131, (S)-N-(2-Aminophenyl)-4-(3-(3-(pyridin-3-ylmethyl)thioureido)pyrrolidin-1-yl)benzamide] | ≤ 0.5 | ≤ 5 | ≤ 1 | – | – | – |
| CN(C)CC(=O)N[C@H]1CCN(c2ccc(C(=O)Nc3ccccc3N)cc2)C1 [Compound 141, (S)-N-(2-Aminophenyl)-4-(3-(2-(dimethylamino)acetamido)pyrrolidin-1-yl)benzamide] | ≤ 0.5 | ≤ 5 | ≤ 5 | > 50 | – | – |
| CCOC(=O)N[C@H]1CCN(c2ccc(C(=O)Nc3ccccc3N)cc2)C1 [Compound 121, (S)-Ethyl 1-(4-(2-aminophenylcarbamoyl)phenyl)pyrrolidin-3-yl carbamate] | ≤ 0.5 | ≤ 0.5 | – | – | ≤ 1 | ≤ 50 |
| Nc1ccccc1NC(=O)c1ccc(N2CC[C@H](NC(=O)OCc3ccccn3)C2)cc1 [Compound 143, (S)-Pyridin-2-ylmethyl 1-(4-(2-aminophenylcarbamoyl)phenyl)pyrrolidin-3-yl carbamate] | ≤ 0.5 | ≤ 0.5 | ≤ 1 | ≤ 50 | – | – |
| Nc1ccccc1NC(=O)c1ccc(N2CC[C@H](NC(=O)OCCN3CCOCC3)C2)cc1 [Compound 195, (S)-2-morpholinoethyl 1-(4-(2-aminophenylcarbamoyl)-phenyl)pyrrolidin-3-ylcarbamate] | ≤ 0.5 | ≤ 1 | ≤ 5 | – | – | – |
| COCCOC(=O)N[C@H]1CCN(c2ccc(C(=O)Nc3ccccc3N)cc2)C1 [Compound 129, (S)-2-Methoxyethyl-1-(4-(2-aminophenylcarbamoyl)phenyl)pyrrolidin-3-yl carbamate] | – | – | – | – | ≤ 1 | ≤ 50 |
| CN(C)CCCOC(=O)N[C@H]1CCN(c2ccc(C(=O)Nc3ccccc3N)cc2)C1 [Compound 144, (S)-3-(Dimethylamino)propyl 1-(4-(2-aminophenylcarbamoyl)phenyl)pyrrolidin-3-yl carbamate] | ≤ 0.5 | ≤ 0.5 | – | – | ≤ 1 | – |
| Nc1ccccc1NC(=O)c1ccc(N2CC[C@H](NC(=O)OCC3c4ccccc4-c4ccccc43)C2)cc1 [Compound 201, (S)-(9H-fluoren-9-y)methyl 1-(4-(2-aminophenylcarbamoyl)-phenyl)pyrrolidin-3-ylcarbamate] | ≤ 0.1 | ≤ 0.5 | – | – | – | – |
| COCCOC(=O)N[C@@H]1CCN(c2ccc(C(=O)Nc3ccccc3N)cc2)C1 [Compound 130] | ≤ 5 | ≤ 5 | ≤ 5 | – | – | – |
